The text below walks through data of patent publication US4885299A, “2-(2,3-dihydro-2-oxo-3-benzofuranyl)acetic acids antihypoxic and nootropic effects having” (ADIR Et Cie, priority 1987, dated 1989).

Experiment [1] concerns brain energy-rich compounds (ATP, ADP, AMP). Kind of experiment: Acute hypoxia in rats; protection of tissue energy-rich compounds in brain (ATP, energy content). It counts as in vivo, Male Fischer 344 rats (Charles River). Conditions: for % inhibition of the effects of hypoxia, ATP / % inhibition of the effects of hypoxia, EC (tissue energy content): 3% oxygen for 2 minutes. On the procedure: (§1) The compounds of the present invention were tested in respect of their capacity to prolong the survival of cerebral tissue during acute hypoxia in mice, or to maintain the level of tissue energy-rich compounds in rats subjected to a fall in the oxygen supply [Pharmacology of Cerebral Ischemia, p. 334-339 (1968) Elsevier Science Publishers B.V., J. Krieglstein ed.]. […] Forsch. Drug. Res. (1986), 36 II No. 9, p. 1314-1320].
Whereas the control rats breath a gaseous mixture containing 21% of oxygen and 79% of nitrogen, the rats subjected to hypoxia breath a mixture of 3% oxygen and 97% nitrogen for 2 minutes.
At the end of the hypoxic period, the animals are rapidly sacrificed by total immersion in liquid nitrogen. The frozen brain is removed and the energy-rich compounds (ATP, ADP, AMP) are extracted and assayed by the luciferin luminescence method.
The tissue energy content (EC) is calculated according to ATKINSON's formula: [formula]

The subject of experiment [2] is Acute hypoxia in mice; survival of the brain. Kind of experiment: Acute hypoxia in mice (hypobaric); brain survival time to final respiratory gasp. The settings on record: mice. It counts as in vivo, Male CD1 mice (Charles River). As to the method:
as §1
The survival of the brain is assessed by measuring the time at which the final respiratory gasp is observed.
The survival time of a treated batch is compared with that of a control batch receiving only the solvent.
The percentage increase in the survival time after the animals are treated with the compounds of the invention is shown in Table II.

Setting [3] is: 100 mg/kg I.P., listed as pyritinol.

The structures appear in SMILES notation.

`Cc1ncc(CSSCc2cnc(C)c(O)c2CO)c(CO)c1O` [Pyritinol, pyritinol]: the “% inhibition of the effects of hypoxia, ATP” value was found to be 11.1% in experiment [1] (30 mg/kg I.P.), 23.3% in experiment [1] (100 mg/kg I.P.), 23% in experiment [1] (setting [3]) and 90.4% in experiment [1] (300 mg/kg I.P.). For the same molecule, the “% inhibition of the effects of hypoxia, EC (tissue energy content)” value in experiment [1] (30 mg/kg I.P.) came to 16.6%; in experiment [1] (100 mg/kg I.P.) it was 35.2%; in experiment [1] (setting [3]), 35%; in experiment [1] (300 mg/kg I.P.) it was 85.4%. Besides, in experiment [1] (100 mg/kg), the “antihypoxic effect in words” value is “only a more modest effect”. The “antihypoxic effect / protection in words” value in experiment [1] (300 mg/kg) was “distinct antihypoxic effect”. Also, the “Percentage increase in the survival time” value in experiment [2] (100 mg/kg I.P., 30 minutes before hypoxia) is listed as “+27%”. Moreover, in experiment [2] (100 mg/kg), the “significance of the protection (brain survival time)” value is given as “significant”. For the same molecule, the change in vivo at 30 mg/kg in experiment [2] (Mus musculus, ip, 30 mg/kg I.P., 30 minutes before hypoxia, read-out: Percentage increase in the survival time) is 13%. Besides, the change in vivo at 100 mg/kg in experiment [2] (Mus musculus, ip, 100 mg/kg I.P., 30 minutes before hypoxia, read-out: Percentage increase in the survival time) was 27%. The change in vivo at 200 mg/kg in experiment [2] (Mus musculus, ip, 200 mg/kg I.P., 30 minutes before hypoxia, read-out: Percentage increase in the survival time) was determined as 77%.
